Like-named read-outs stand apart in the source and are kept apart here.
Key:
in vivo = details: Balb/c, mouse, 1 mg/kg
B/Perth (B/Perth/211/01) = assay: microbe, parasite or virus in culture; format: cell-based; details: read-out: IC50 in the plaque size reduction assay, B/Perth
Human Neu2 = Human Neu2 (Homo sapiens, UniProt Q9Y3R4); assay: Time-dependent inactivation of human Neu2; format: biochemical; details: 1 mM inactivator, 27° C., pH 5.6
Description: All experiments were carried out in a 100 mM Na2HPO4/50 mM Citric acid buffer, pH 5.6. […] The data were analyzed using the program GraFit 4.0 (Erithacus software) (R. Leatherbarrow, Erithacus Software Ltd., 4th Edition, Staines, UK, (1990)). […] Residual enzyme activity was determined at appropriate time intervals by the addition of an aliquot of the inactivation mixture to an assay buffer solution containing 8 mM 4-trifluoromethylumbelliferyl sialic acid (CF3MUSA). The initial linear increase in absorbance at 400 nm was used as a measure of the enzyme activity. These initial rates at each time point were plotted as a function of time to obtain time-dependent exponential decay curves from which ki obs could be obtained using the equation: (rate)t=(rate)t=0e^([…])+offset IC50 Enzyme Inhibition Assays

[1] = molecular target: Hong Kong H3N2 (A/HongKong/01/68) neuraminidase (Influenza A virus, UniProt Q91MA2); assay: biochemical
A/Fukui H3N2 = assay: microbe, parasite or virus in culture; format: cell-based; details: read-out: IC50 in the plaque size reduction assay, A/Fukui H3N2
[2] = mouse, in vivo
[3] = molecular target: B/Perth wt (B/Perth/211/01) NA (Influenza B virus, UniProt Q3S340); format: biochemical
[4] = molecular target: Brisbane H1N1 (A/Brisbane/59/07) neuraminidase (Influenza A virus, UniProt D5F1R0)
[5] = test system: A/Mississippi H1N1 (A/Mississippi/3/01); assay: microbe, parasite or virus in culture; format: cell-based; details: read-out: IC50 in the plaque size reduction assay, A/Mississippi H1N1
[6] = molecular target: California H1N1 (A/California/07/09) neuraminidase (Influenza A virus, UniProt C3W6G3)
A/Fukui H3N2 wt NA = A/Fukui H3N2 wt NA (Influenza A virus, UniProt A0A0F6NYK2); format: biochemical; details: read-out: IC50 in the enzyme inhibition assay, A/Fukui H3N2
[7] = molecular target: B/Florida wt (B/Florida/4/2006) NA (Influenza B virus, UniProt J7JZT1); format: biochemical
[8] = molecular target: Sol Isl sH1N1 wt (A/Solomon Islands/3/2006) NA (Influenza A virus, UniProt B4URD9); format: biochemical
[9] = molecular target: sH1N1/01 wt (A/Mississippi/3/01 H1N1) NA (Influenza A virus, UniProt Q3M0T6); format: biochemical
[10] = read-out: IC50 in the enzyme inhibition assay, B/Perth

Chain of Human Neu2 (Q9Y3R4 whole entry): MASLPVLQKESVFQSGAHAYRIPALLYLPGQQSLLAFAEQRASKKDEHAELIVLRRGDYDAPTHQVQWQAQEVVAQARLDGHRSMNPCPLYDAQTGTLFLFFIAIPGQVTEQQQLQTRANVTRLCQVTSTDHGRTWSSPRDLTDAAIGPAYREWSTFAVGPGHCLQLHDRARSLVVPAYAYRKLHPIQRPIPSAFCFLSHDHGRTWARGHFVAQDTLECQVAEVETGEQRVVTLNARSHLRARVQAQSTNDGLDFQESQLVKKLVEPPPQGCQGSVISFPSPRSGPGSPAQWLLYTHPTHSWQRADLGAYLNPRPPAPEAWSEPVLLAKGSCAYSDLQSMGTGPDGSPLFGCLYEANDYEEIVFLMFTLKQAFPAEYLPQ

Compound	IC50 (B/Perth (B/Perth/211/01); Influenza B virus, MDCK)	Ki [1]	IC50 (A/Fukui H3N2; Influenza A virus, H3N2, MDCK)	IC50 [3, 10]	khyd [4]	t1/2 (inac) [4]	t1/2 (reac) [4]	IC50 ([5]; Influenza A virus, H1N1, MDCK)	Ki [6]	khyd [6]	t1/2 (inac) [6]	t1/2 (reac) [6]	further results
CC(=O)N[C@@H]1C(NC(=N)N)C(F)[C@](F)(C(=O)O)OC1[C@H](O)[C@H](O)CO (some centres unmarked) [FaxGuDFSA]	10 to 100 nM	70 nM	100 nM	54 nM	<0.0001 <0.0001 <0.0001 <0.0001 <0.000l min^−1	7.4 9.2 20.9 6.8 20.2 min	>6900 >6900 >6900 >6900 >6900 min	10 nM	350 nM	<0.0001 <0.0001 <0.0001 <0.0001 <0.000l min^−1	7.4 9.2 20.9 6.8 20.2 min	>6900 >6900 >6900 >6900 >6900 min	bioavailability (in vivo): 92%; inactivation of Neu2 (Human Neu2): occurred slowly; plasma half-life after intranasal administration vs IV injection [2]: significantly longer; IC50 ([3]; read-out: IC50 B/Perth wt): 54 nM
Oseltamivir	–	–	–	–	–	–	–	–	–	–	–	–	IC50 (A/Fukui H3N2 wt NA): 1.7 nM; IC50 [7]: 22.6 nM
CC(=O)NC1C(N)C(F)C(F)(C(=O)O)OC1[C@H](O)[C@H](O)CO (stereo in doubt) [FeqAmDFSA, 5-Acetamido-2,4,5-trideoxy-4-amino-2α, 3β-difluoro-α-D-erythro-L-gluco-nonulo-pyranosonate]	10 to 100 nM	–	1000 nM	5.4 nM	0.0027 0.0059 0.0150 0.0140 0.0045 min^−1	0.9 0.2 0.4 0.8 — min	256 117 46 49 153 min	100 nM	370 nM	0.0027 0.0059 0.0150 0.0140 0.0045 min^−1	0.9 0.2 0.4 0.8 — min	256 117 46 49 153 min	–
CC(=O)NC1C(NC(=N)N)C(F)C(F)(C(=O)O)OC1[C@H](O)[C@H](O)CO (stereo in doubt) [FeqGuDFSA, 5-Acetamido-2,4,5-trideoxy-2α, 3β-difluoro-4-guanidino-α-D-erythro-L-gluco-nonulopyranosonate]	1 nM	150 nM	10 nM	4.5 nM	0.0005 0.0015 0.001 0.0019 0.0005 min^−1	0.3 0.5 0.9 0.5 0.8 min	1380 460 690 363 1380 min	1 nM	100 nM	0.0005 0.0015 0.001 0.0019 0.0005 min^−1	0.3 0.5 0.9 0.5 0.8 min	1380 460 690 363 1380 min	inactivation of Neu2 (Human Neu2): occurred slowly; IC50 ([3]; read-out: IC50 B/Perth wt): 4.5 nM
CC(=O)N[C@H]1C([C@H](O)[C@H](O)CO)O[C@@](F)(C(=O)O)C(F)[C@H]1O (stereo partly drawn) [DFSA, 5-Acetamido-5-deoxy-3-fluoro-D-erythro-β-L-manno-2-nonulopyranosonic acid fluoride]	1000 nM	–	100000 nM	70 nM	–	–	–	1000 nM	–	–	–	–	–
CC(=O)N[C@@H]1C(N)C(F)[C@](F)(C(=O)O)OC1[C@H](O)[C@H](O)CO (some centres unmarked) [FaxAmDFSA]	100 nM	240 nM	1000 nM	210 nM	0.0001 0.0002 0.0001 0.0003 <0.0001 min^−1	2.1 2.5 1.7 4.0 20.8 min	6900 3450 6900 2300 >6900 min	100 nM	4280 nM	0.0001 0.0002 0.0001 0.0003 <0.0001 min^−1	2.1 2.5 1.7 4.0 20.8 min	6900 3450 6900 2300 >6900 min	–
Zanamivir	–	–	–	–	–	–	–	–	–	–	–	–	IC50 (B/Perth (B/Perth/211/01)): 10 nM; IC50 (A/Fukui H3N2): 100 nM; IC50 [8]: 2.2 nM; IC50 [5]: ≤ 1 nM; IC50 ([9]; read-out: IC50 in the enzyme inhibition assay, A/Mississippi H1N1): 1.9 nM; IC50 ([9]; read-out: IC50 sH1N1/01 wt): 1.9 nM
